Data: article PMC5218480 (PLoS ONE, 2017)

System: MV-4-11 cells
Assay: Gene expression microarray analysis (Affymetrix PrimeView) and GSEA
Format: cell-based, human
Parameters: RFU PODN (11730768_x_at) / Fold change /veh PODN (11730768_x_at) / RFU LINC00158 (11744669_a_at) / Fold change /veh LINC00158 (11744669_a_at) / RFU DUSP10 (11751237_a_at) / Fold change /veh DUSP10 (11751237_a_at) / RFU ID3 (11757404_x_at) / Fold change /veh ID3 (11757404_x_at) / RFU PLEKHG5 (11737974_s_at) / Fold change /veh PLEKHG5 (11737974_s_at) / RFU LRRC4B (11730491_at) / Fold change /veh LRRC4B (11730491_at) / RFU GIMAP4 (11747438_a_at) / Fold change /veh GIMAP4 (11747438_a_at) / RFU KRT8 (11758183_x_at) / Fold change /veh KRT8 (11758183_x_at) / RFU CNN1 (11734310_a_at) / Fold change /veh CNN1 (11734310_a_at) / RFU VPS37D (11726825_at) / Fold change /veh VPS37D (11726825_at) / RFU C10orf10 (11716522_x_at) / Fold change /veh C10orf10 (11716522_x_at) / RFU KIR2DL2 /// KIR2DL4 /// KIR2DL5A /// KIR2DL5B /// KIR2DS1 /// KIR2DS2 /// KIR2DS3 /// KIR2DS4 /// KIR3DL3 /// KIR3DL3 /// KIR3DS1 (11738374_at) / Fold change /veh KIR2DL2 /// KIR2DL4 /// KIR2DL5A /// KIR2DL5B /// KIR2DS1 /// KIR2DS2 /// KIR2DS3 /// KIR2DS4 /// KIR3DL3 /// KIR3DL3 /// KIR3DS1 (11738374_at) / RFU C1QL1 (11718748_at) / Fold change /veh C1QL1 (11718748_at) / RFU TMPRSS4 (11747572_a_at) / Fold change /veh TMPRSS4 (11747572_a_at) / RFU HAMP (11756126_x_at) / Fold change /veh HAMP (11756126_x_at) / RFU RNFT2 (11725882_a_at) / Fold change /veh RNFT2 (11725882_a_at) / RFU NR4A2 (11747474_a_at) / Fold change /veh NR4A2 (11747474_a_at) / RFU ABCC12 (11746883_a_at) / Fold change /veh ABCC12 (11746883_a_at) / RFU TMEM136 (11760407_x_at) / Fold change /veh TMEM136 (11760407_x_at) / RFU CLDN22 /// WWC2 (11732394_at) / Fold change /veh CLDN22 /// WWC2 (11732394_at) / RFU HLA-DPB1 (11760878_x_at) / Fold change /veh HLA-DPB1 (11760878_x_at) / RFU SPINT1 (11716480_a_at) / Fold change /veh SPINT1 (11716480_a_at) / RFU GAP43 (11754022_s_at) / Fold change /veh GAP43 (11754022_s_at) / RFU A4GNT (11735810_at) / Fold change /veh A4GNT (11735810_at) / RFU PRB3 (11715151_x_at) / Fold change /veh PRB3 (11715151_x_at) / RFU TUBB4B (11761932_at) / Fold change /veh TUBB4B (11761932_at) / RFU CAPN14 (11732068_a_at) / Fold change /veh CAPN14 (11732068_a_at) / RFU TMCC2 (11721928_a_at) / Fold change /veh TMCC2 (11721928_a_at) / RFU IRGQ (11745062_a_at) / Fold change /veh IRGQ (11745062_a_at) / RFU FAM174B (11720279_a_at) / Fold change /veh FAM174B (11720279_a_at) / RFU TMPRSS4 (11748680_a_at) / Fold change /veh TMPRSS4 (11748680_a_at) / RFU FAM212B (11763350_a_at) / Fold change /veh FAM212B (11763350_a_at) / RFU PLEKHG5 (11743358_a_at) / Fold change /veh PLEKHG5 (11743358_a_at) / RFU ZSCAN30 (11745921_a_at) / Fold change /veh ZSCAN30 (11745921_a_at) / RFU CMKLR1 (11741424_a_at) / Fold change /veh CMKLR1 (11741424_a_at) / RFU LOC101060620 /// MAPK8IP1 (11723275_at) / Fold change /veh LOC101060620 /// MAPK8IP1 (11723275_at) / RFU SPTSSB (11747773_x_at) / Fold change /veh SPTSSB (11747773_x_at) / RFU PRSS12 (11739890_at) / Fold change /veh PRSS12 (11739890_at) / RFU BIN1 (11741810_x_at) / Fold change /veh BIN1 (11741810_x_at) / RFU WNT11 (11732464_a_at) / Fold change /veh WNT11 (11732464_a_at) / RFU C10orf10 (11716521_a_at) / Fold change /veh C10orf10 (11716521_a_at) / RFU C5orf56 (11738089_at) / Fold change /veh C5orf56 (11738089_at) / RFU CYB561 (11721691_x_at) / Fold change /veh CYB561 (11721691_x_at) / RFU ANKRD19P (11752326_a_at) / Fold change /veh ANKRD19P (11752326_a_at) / RFU OR2T12 /// OR2T33 /// OR2T8 (11738714_s_at) / Fold change /veh OR2T12 /// OR2T33 /// OR2T8 (11738714_s_at) / RFU VCAN (11748164_a_at) / Fold change /veh VCAN (11748164_a_at) / RFU JSRP1 (11732532_at) / Fold change /veh JSRP1 (11732532_at) / RFU KRTAP10-11 (11738290_x_at) / Fold change /veh KRTAP10-11 (11738290_x_at) / RFU MYO3A (11730013_a_at) / Fold change /veh MYO3A (11730013_a_at) / RFU EBF3 (11725865_a_at) / Fold change /veh EBF3 (11725865_a_at) / RFU CAMK2N1 (11719241_x_at) / Fold change /veh CAMK2N1 (11719241_x_at) / RFU C5orf56 (11738088_a_at) / Fold change /veh C5orf56 (11738088_a_at) / RFU OLFML3 (11715873_a_at) / Fold change /veh OLFML3 (11715873_a_at) / RFU LOC100653217 /// NTM (11731650_a_at) / Fold change /veh LOC100653217 /// NTM (11731650_a_at) / RFU MAPK11 (11762145_a_at) / Fold change /veh MAPK11 (11762145_a_at) / RFU FIZ1 (11724087_x_at) / Fold change /veh FIZ1 (11724087_x_at) / RFU OASL (11726364_x_at) / Fold change /veh OASL (11726364_x_at) / RFU SOX15 (11748057_x_at) / Fold change /veh SOX15 (11748057_x_at) / RFU CD79A (11719716_a_at) / Fold change /veh CD79A (11719716_a_at) / RFU HIST1H1D (11736915_at) / Fold change /veh HIST1H1D (11736915_at) / RFU CASKIN2 (11723855_a_at) / Fold change /veh CASKIN2 (11723855_a_at) / RFU LOC730098 (11760151_x_at) / Fold change /veh LOC730098 (11760151_x_at) / RFU OR4N2 (11742367_at) / Fold change /veh OR4N2 (11742367_at) / RFU PRRT2 (11749266_a_at) / Fold change /veh PRRT2 (11749266_a_at) / RFU SNX32 (11753110_a_at) / Fold change /veh SNX32 (11753110_a_at) / RFU CDHR5 (11726645_a_at) / Fold change /veh CDHR5 (11726645_a_at) / RFU RCAN1 (11760418_a_at) / Fold change /veh RCAN1 (11760418_a_at) / RFU FAM167A (11723789_a_at) / Fold change /veh FAM167A (11723789_a_at) / RFU FAM26E (11764081_at) / Fold change /veh FAM26E (11764081_at) / RFU ISYNA1 (11749810_s_at) / Fold change /veh ISYNA1 (11749810_s_at) / RFU ACY1 (11761880_at) / Fold change /veh ACY1 (11761880_at) / RFU 11764098_at / Fold change /veh 11764098_at / RFU SAMD14 (11745864_x_at) / Fold change /veh SAMD14 (11745864_x_at) / RFU NPB (11741838_a_at) / Fold change /veh NPB (11741838_a_at) / RFU TMPRSS6 (11731388_a_at) / Fold change /veh TMPRSS6 (11731388_a_at) / RFU KRTAP10-2 (11738614_at) / Fold change /veh KRTAP10-2 (11738614_at) / RFU ARHGAP8 /// PRR5-ARHGAP8 (11727945_x_at) / Fold change /veh ARHGAP8 /// PRR5-ARHGAP8 (11727945_x_at) / RFU KRTAP5-7 /// NADSYN1 (11734609_at) / Fold change /veh KRTAP5-7 /// NADSYN1 (11734609_at) / RFU RASL12 (11751679_a_at) / Fold change /veh RASL12 (11751679_a_at) / RFU CDKN2B (11736163_a_at) / Fold change /veh CDKN2B (11736163_a_at) / RFU PRF1 (11729649_at) / Fold change /veh PRF1 (11729649_at) / RFU, ZNF638 /// ZNF638-IT1 / Fold change vs veh, ZNF638 /// ZNF638-IT1 / RFU, PANK3 / Fold change vs veh, PANK3 / RFU, SH3YL1 / Fold change vs veh, SH3YL1 / RFU, ZEB2 / Fold change vs veh, ZEB2 / RFU, NRIP1 / Fold change vs veh, NRIP1 / RFU, PTTG1IP / Fold change vs veh, PTTG1IP / RFU, CAPN2 / Fold change vs veh, CAPN2 / RFU, MED14 / Fold change vs veh, MED14 / RFU, SNORA58 / Fold change vs veh, SNORA58 / RFU, C1orf63 / Fold change vs veh, C1orf63 / RFU, LRRFIP1 / Fold change vs veh, LRRFIP1 / RFU, NDUFAF7 / Fold change vs veh, NDUFAF7 / RFU, SLC12A2 / Fold change vs veh, SLC12A2 / RFU, IBTK / Fold change vs veh, IBTK / RFU, ESF1 / Fold change vs veh, ESF1 / Fold change vs veh, TMEM50B / RFU, TAOK1 / Fold change vs veh, TAOK1 / RFU, ACBD3 / Fold change vs veh, ACBD3 / RFU, TMA16 / Fold change vs veh, TMA16 / RFU, RWDD3 / Fold change vs veh, RWDD3 / RFU, BCAT1 / Fold change vs veh, BCAT1 / RFU, EDEM3 / Fold change vs veh, EDEM3 / RFU, TMEM33 / Fold change vs veh, TMEM33 / RFU, WDR75 / Fold change vs veh, WDR75 / RFU, AHCTF1 / Fold change vs veh, AHCTF1 / RFU, TFRC / Fold change vs veh, TFRC / RFU, ZDHHC17 / Fold change vs veh, ZDHHC17 / RFU, NOM1 / Fold change vs veh, NOM1 / RFU, ARL8B / Fold change vs veh, ARL8B / RFU, ZBTB11 / Fold change vs veh, ZBTB11 / RFU, TAMM41 / Fold change vs veh, TAMM41 / RFU, KIAA1704 /// LOC100996395 / Fold change vs veh, KIAA1704 /// LOC100996395 / RFU, ING1 / Fold change vs veh, ING1 / RFU, TRMT61B / Fold change vs veh, TRMT61B / RFU, FUBP3 / Fold change vs veh, FUBP3 / RFU, TP53 / Fold change vs veh, TP53 / RFU, TNKS2 / Fold change vs veh, TNKS2 / RFU, ZFP14 / Fold change vs veh, ZFP14 / RFU, ACTR2 / Fold change vs veh, ACTR2 / RFU, PPP3R1 / Fold change vs veh, PPP3R1 / RFU, PIK3R1 / Fold change vs veh, PIK3R1 / RFU, HNRNPA1 / Fold change vs veh, HNRNPA1 / RFU, RNF170 / Fold change vs veh, RNF170 / RFU, ZNF28 / Fold change vs veh, ZNF28 / RFU, RNGTT / Fold change vs veh, RNGTT / RFU, OGT / Fold change vs veh, OGT / RFU, BRD1 / Fold change vs veh, BRD1 / RFU, MARS / Fold change vs veh, MARS / RFU, ZNF655 / Fold change vs veh, ZNF655 / RFU, FAHD1 / Fold change vs veh, FAHD1 / RFU, BDP1 / Fold change vs veh, BDP1 / RFU, LRRCC1 / Fold change vs veh, LRRCC1 / RFU, ARID1A / Fold change vs veh, ARID1A / RFU, ZNF146 / Fold change vs veh, ZNF146 / RFU, ZNF330 / Fold change vs veh, ZNF330 / RFU, GPN3 / Fold change vs veh, GPN3 / RFU, C9orf123 / Fold change vs veh, C9orf123 / RFU, N4BP2L2 / Fold change vs veh, N4BP2L2 / RFU, ARFIP1 / Fold change vs veh, ARFIP1 / RFU, FAM179B / Fold change vs veh, FAM179B / RFU, BCL10 / Fold change vs veh, BCL10 / RFU, UHRF1BP1L / Fold change vs veh, UHRF1BP1L / RFU, BET1 / Fold change vs veh, BET1 / RFU, CNOT2 / Fold change vs veh, CNOT2 / RFU, ZNF268 / Fold change vs veh, ZNF268 / Fold change vs veh, ZNF507 / RFU, DGCR2 / Fold change vs veh, DGCR2 / RFU, WDSUB1 / Fold change vs veh, WDSUB1 / Fold change vs veh, HSP90B1 /// MIR3652 / RFU, ADSS / Fold change vs veh, ADSS / RFU, GK / Fold change vs veh, GK / RFU, ZNF148 / Fold change vs veh, ZNF148 / RFU, TAF9 / Fold change vs veh, TAF9 / RFU, SLC1A5 / Fold change vs veh, SLC1A5 / RFU, SLMO2 / Fold change vs veh, SLMO2 / RFU, ABCC4 / Fold change vs veh, ABCC4 / RFU, LOC101060439 /// RAP1B / Fold change vs veh, LOC101060439 /// RAP1B / RFU, RFX7 / Fold change vs veh, RFX7 / RFU, GTPBP10 / Fold change vs veh, GTPBP10 / RFU, CNEP1R1 / Fold change vs veh, CNEP1R1 / RFU, BIVM-ERCC5 /// ERCC5 / Fold change vs veh, BIVM-ERCC5 /// ERCC5 / RFU, ILF3 / Fold change vs veh, ILF3 / RFU 11762660_at / Fold change /veh 11762660_at / RFU VCAN (11757783_s_at) / Fold change /veh VCAN (11757783_s_at) / RFU DDX43 (11728927_at) / Fold change /veh DDX43 (11728927_at) / RFU KRT8 (11758188_x_at) / Fold change /veh KRT8 (11758188_x_at) / RFU NKD1 (11759106_at) / Fold change /veh NKD1 (11759106_at) / RFU SRD5A1 (11742802_a_at) / Fold change /veh SRD5A1 (11742802_a_at) / RFU TPSAB1 /// TPSB2 (11721975_s_at) / Fold change /veh TPSAB1 /// TPSB2 (11721975_s_at) / RFU GSTM3 (11746129_a_at) / Fold change /veh GSTM3 (11746129_a_at) / RFU IL23R (11737362_x_at) / Fold change /veh IL23R (11737362_x_at) / RFU TMEM51 (11727254_a_at) / Fold change /veh TMEM51 (11727254_a_at) / RFU PIWIL2 (11732686_x_at) / Fold change /veh PIWIL2 (11732686_x_at) / RFU ORM1 (11744905_x_at) / Fold change /veh ORM1 (11744905_x_at) / RFU CCDC152 (11743942_at) / Fold change /veh CCDC152 (11743942_at) / RFU ECM1 (11717891_a_at) / Fold change /veh ECM1 (11717891_a_at) / RFU IL23R (11748794_a_at) / Fold change /veh IL23R (11748794_a_at) / RFU TNFAIP8L3 (11732012_x_at) / Fold change /veh TNFAIP8L3 (11732012_x_at) / RFU MBOAT4 (11741988_at) / Fold change /veh MBOAT4 (11741988_at) / RFU 11764193_at / Fold change /veh 11764193_at / RFU TMEM53 (11763286_at) / Fold change /veh TMEM53 (11763286_at) / RFU MAGEB2 (11727129_at) / Fold change /veh MAGEB2 (11727129_at) / RFU TMEM200A (11744735_a_at) / Fold change /veh TMEM200A (11744735_a_at) / RFU CCDC152 (11751479_a_at) / Fold change /veh CCDC152 (11751479_a_at) / RFU FAM211A (11726209_a_at) / Fold change /veh FAM211A (11726209_a_at) / RFU RGS16 (11746705_a_at) / Fold change /veh RGS16 (11746705_a_at) / RFU VCAN (11755009_s_at) / Fold change /veh VCAN (11755009_s_at) / RFU RHOB (11743442_s_at) / Fold change /veh RHOB (11743442_s_at) / RFU RGS16 (11720943_a_at) / Fold change /veh RGS16 (11720943_a_at) / RFU RGS16 (11720944_at) / Fold change /veh RGS16 (11720944_at) / RFU, VPS4B / Fold change vs veh, VPS4B / RFU, CREB1 / Fold change vs veh, CREB1 / RFU, DNAJC13 / Fold change vs veh, DNAJC13 / RFU, GNAQ / Fold change vs veh, GNAQ / RFU, CDK5R1 / Fold change vs veh, CDK5R1 / RFU, ZRANB3 / Fold change vs veh, ZRANB3 / RFU, CUL4A / Fold change vs veh, CUL4A / RFU, CCNY / Fold change vs veh, CCNY / RFU, UFL1 / Fold change vs veh, UFL1 / RFU, COG3 / Fold change vs veh, COG3 / RFU, DIAPH2 / Fold change vs veh, DIAPH2 / RFU, SKA2 / Fold change vs veh, SKA2 / RFU, AFF3 / Fold change vs veh, AFF3 / RFU, LMF1 / Fold change vs veh, LMF1 / RFU, IPO11 / Fold change vs veh, IPO11 / RFU, DFFB / Fold change vs veh, DFFB / RFU, FOXP1 / Fold change vs veh, FOXP1 / RFU, CARD8 / Fold change vs veh, CARD8 / RFU, STRN3 / Fold change vs veh, STRN3 / RFU, ADK / Fold change vs veh, ADK / RFU, RASSF2 / Fold change vs veh, RASSF2 / RFU, WIPF1 / Fold change vs veh, WIPF1 / RFU, LARP1B / Fold change vs veh, LARP1B / RFU, RASA1 / Fold change vs veh, RASA1 / RFU, RB1 / Fold change vs veh, RB1 / RFU, PPFIA1 / Fold change vs veh, PPFIA1 / RFU, MAT2A / Fold change vs veh, MAT2A / RFU, CCT5 / Fold change vs veh, CCT5 / RFU, WDR92 / Fold change vs veh, WDR92 / RFU, CUX1 / Fold change vs veh, CUX1 / RFU, TTC7A / Fold change vs veh, TTC7A / RFU, TMEM135 / Fold change vs veh, TMEM135 / RFU, DEPTOR / Fold change vs veh, DEPTOR / RFU, CPM / Fold change vs veh, CPM / RFU, DNAJB6 / Fold change vs veh, DNAJB6 / RFU, CACNA2D3 / Fold change vs veh, CACNA2D3 / RFU, DTX4 / Fold change vs veh, DTX4 / RFU, TFCP2 / Fold change vs veh, TFCP2 / RFU, GMCL1 /// GMCL1P1 / Fold change vs veh, GMCL1 /// GMCL1P1 / RFU, AEBP2 / Fold change vs veh, AEBP2 / RFU, SNHG1 /// SNORD22 /// SNORD25 /// SNORD26 /// SNORD27 /// SNORD28 /// SNORD29 /// SNORD31 / Fold change vs veh, SNHG1 /// SNORD22 /// SNORD25 /// SNORD26 /// SNORD27 /// SNORD28 /// SNORD29 /// SNORD31 / Fold change (Aza/veh), C12orf56 (ProbeSet 11735607_a_at) / Fold change (ACY-1035/veh), C12orf56 (ProbeSet 11735607_a_at) / Fold change (Aza/veh), FGFR1OP (ProbeSet 11751329_s_at) / Fold change (ACY-1035/veh), FGFR1OP (ProbeSet 11751329_s_at) / Fold change (Aza/veh), VPS36 (ProbeSet 11739960_a_at) / Fold change (ACY-1035/veh), VPS36 (ProbeSet 11739960_a_at) / RFU SYPL1 (11715823_x_at) / Fold change /veh SYPL1 (11715823_x_at) / RFU IGFBP7 (11715501_s_at) / Fold change /veh IGFBP7 (11715501_s_at) / RFU REEP3 (11722064_at) / Fold change /veh REEP3 (11722064_at) / RFU IGLL1 (11728026_x_at) / Fold change /veh IGLL1 (11728026_x_at): dose or concentration left out as unconfirmed
Conditions: ProbeSet 11745260_x_at; LIST B

Nc1ccc(-c2cccs2)cc1NC(=O)c1ccc2c(c1)cc(C1CC1)n2CCN1CCOCC1 [ACY-1035]
Fold change vs veh, SLC12A2: 0.87
